The values that follow come from patent publication US12194081B2, “ARGINASE1 polypeptides” (IO BIOTECH APS, priority 2018, dated 2025).

Holding throughout (type): cell-based, human
For assay [1], the system named is CD4+ and CD8+ memory T cells (CD45RO+). Briefly: ex vivo IFNγ ELISPOT of sorted memory T cells. As for the experimental part: For in vitro ELISPOT, PBMCs from cancer patients and healthy donors were pulsed with 20 μM of Arginase 1-derived peptides and 120 U/ml IL-2 in 24-well plates for 7 days before being used in an ELISPOT assay. The cells were placed in 96-well nitrocellulose ELISPOT plates (MultiScreen MAIP N45; Millipore) pre-coated with IFNγ capture antibody (Mabtech). Arginase peptides added to a final concentration of 5 μM and plates incubated at 37° C. for 14-16 hours. After the incubation the cells were washed off and secondary biotinylated Ab (Mabtech, cat. 3420-6-1000) was added for 2 hours at room temperature. Unbound secondary antibody was washed off and streptavidin conjugated alkaline phosphatase (AP) (Mabtech, cat. 3310-10) was added for 1 hour at room temperature. Unbound conjugated enzyme was washed off and the assay was developed by adding BCIP/NBT substrate (Mabtech, cat. 3650-10). Developed ELISPOT plates were analyzed on CTL ImmunoSpot S6 Ultimate-V analyzer using Immunospot software v5.1. Responses were reported as the difference between average numbers of spots in wells stimulated with Arginase 1 and wells without added peptide.
CD4+ and CD8+ memory T cells were sorted from freshly thawed healthy donor or cancer patient PBMC samples using magnetic bead sorting kits: Memory CD4+ T Cell Isolation Kit, human (cat. 130-091-893, Miltenyi Biotec) and CD8+ Memory T Cell Isolation Kit, human (cat. 130-094-412, Miltenyi Biotec). The purity of isolated cells was assessed by staining for CD4-FITC, CD8-PerCP, CD45RO-PE (all from BD Biosciences), dead cells were stained using LIVE/DEAD™ Fixable Near-IR Dead Cell Stain Kit (Invitrogen™, ThermoFisher Scientific).
To test that CD4+ and CD8+ memory T cells were sorted from PBMCs of cancer patients and healthy donors that had shown a strong spontaneous immune response ex vivo. […] The purity of memory T cell isolation was confirmed by flow cytometric analysis for CD4+ CD45RO+ and CD8+ CD45RO+ T cells and was determined to be >95%. […] Clear CD8+ memory responses could be detected in 2 healthy donors (see FIG. 4C).

The test system of assay [2] is PBMCs stimulated with IL-4, IL-13 or IL-2. As to the kind of experiment: IFNγ ELISPOT of PBMCs pre-stimulated with Th2 cytokine (IL-4/IL-13) or IL-2. The text has this: To check for IL-4 induced Arg1 responses, PBMCs were stimulated with IL-4 (100 or 50 U/ml) and/or IL-2 (120 or 60 U/ml) for a week before being set up in the ELISPOT assay as described above.
The PBMCs were thawed and stimulated with IL-4, (50 U/ml or 100 U/ml), IL-2 (120 U/ml) or a combination of IL-4 and IL-2 (50 U/ml and 60 U/ml respectively) for one week before being tested in IFNγ ELISPOT for responses against ArgLong2. Non-stimulated cells were used as control.
Next, PBMCs from 2 cancer patients (BC30 (breast cancer), MM27 (malignant melanoma)) and 6 healthy donors that had previously shown strong spontaneous ex vivo responses against ArgLong2 were stimulated with either low dose IL-2 (120 U/ml) or IL-4 (100 U/ml) for 7 days. Non-stimulated cells were used as control. After 7 days in culture, PBMCs were tested for reactivity against ArgLong2 in IFNγ ELISPOT.
In a separate experiment, PBMCs from a healthy donor (HD22, known to have a pre-existing ex vivo response against ArgLong2) were treated with IL-4 (100 U/ml) or IL-13 (20 U/ml) for 7 days in order to increase presentation of the Arginase 1-derived peptides in the PBMC culture and thus stimulate the intrinsic ArgLong2 specific T cells present in the PBMCs. After 7 days of stimulation with IL-4 or IL-13, the PBMCs were analysed in IFNγ ELISPOT assay to check the changes in the frequency of the ArgLong2-specific T cells.

Assay [3] relates to PBMCs from cancer patients and healthy donors. Briefly: in vitro IFNγ ELISPOT of PBMCs after 7 days with peptide and IL-2. As for the experimental part:
PBMCs from healthy donors were isolated using density gradient separation over LymphoprepTM (STEMCELL Technologies) and cryopreserved at -150° C. in FBS supplemented with 10% DMSO. PBMCs from cancer patients were isolated from blood sample a minimum of four weeks after the termination of any anti-cancer therapy. The protocol was approved by the Scientific Ethics Committee for The Capital Region of Denmark and conducted in accordance with the provisions of the Declaration of Helsinki. Written informed consent from the patients was obtained before study entry. […] The sequences of the peptides used in these experiments are shown in full below in alignment with each other, and are also set out in the section entitled “Sequences”). Peptides are described by SEQ ID NO, by name, or by reference to the start and end positions of each peptide sequence within the full length sequence of Arginase 1. Each may be used interchangeably. For example, the peptide of SEQ ID NO: 1 may alternatively be referred to by the name ArgLong2, or may alternatively be referred to as […]-206 (given a start position of 169 and end position of 206). The intended reference in each case will be clear from the context. For in vitro ELISPOT, PBMCs from cancer patients and healthy donors were pulsed with 20 μM of Arginase 1-derived peptides and 120 U/ml IL-2 in 24-well plates for 7 days before being used in an ELISPOT assay. The cells were placed in 96-well nitrocellulose ELISPOT plates (MultiScreen MAIP […]; Millipore) pre-coated with IFNγ capture antibody (Mabtech). Arginase peptides added to a final concentration of 5 μM and plates incubated at 37° C. for 14-16 hours. After the incubation the cells were washed off and secondary biotinylated Ab (Mabtech, cat. 3420-6-1000) was added for 2 hours at room temperature. Unbound secondary antibody was washed off and streptavidin conjugated alkaline phosphatase (AP) (Mabtech, cat. 3310-10) was added for 1 hour at room temperature. Unbound conjugated enzyme was washed off and the assay was developed by adding BCIP/NBT substrate (Mabtech, cat. 3650-10). Developed ELISPOT plates were analyzed on CTL ImmunoSpot S6 Ultimate-V analyzer using Immunospot software v5.1. Responses were reported as the difference between average numbers of spots in wells stimulated with Arginase 1 and wells without added peptide.

“ISAKDIVYIGLRDVDPGEHYILKTLGIKYFSMTEVDRL (Peptide fragment of human Arginase 1 (ArgLong2)) [38-mer, positions 169-206 of full length human Arginase 1]”: the “cancer patients with CD4+ memory responses” value in assay [1] (sorted CD4+ CD45RO+ T cells from 2 cancer patients, FIG. 4B) stood at 2 cancer patients. In assay [1] (sorted CD4+ CD45RO+ T cells from 4 healthy donors, FIG. 4B), the “healthy donors with CD4+ memory responses” value worked out at 3 healthy donors. In addition, the “healthy donors with clear CD8+ memory responses” value in assay [1] (sorted CD8+ CD45RO+ T cells, FIG. 4C) worked out at 2 healthy donors. Also, the “ArgLong2 responses in IL-4 and IL-13 treated PBMC cultures” value in assay [2] (healthy donor HD22, IL-4 100 U/ml or IL-13 20 U/ml for 7 days, vs untreated control, FIG. 10) was “Increased ArgLong2 responses”. Also, the “cultures with increased responses in IL-4 stimulated cultures” value in assay [2] (out of 8 cultures (2 cancer patients, 6 healthy donors), IL-4 100 U/ml for 7 days vs unstimulated and IL-2 stimulated controls, FIG. 5B) is recorded as 6 cultures. In addition, the “responses against ArgLong2 after IL-4 stimulation of PBMCs” value in assay [2] (single melanoma patient, IL-4 50 or 100 U/ml, IL-2 120 U/ml or IL-4+IL-2 for one week, compared with no stimulation or IL-2 alone, FIG. 5A) is on record as “Strong significant responses were seen in all IL-4 stimulated groups”. Besides, in assay [3] (PBMCs from 6 healthy donors, peptide and low dose IL-2 for 1 week, FIG. 1), the “responses in IFNγ ELISPOT (in words)” value is listed as “superior at stimulating T cell responses”. Moreover, the “peptide specific spots in IFNγ ELISPOT where too numerous to count (TNTC)” value in assay [3] (TNTC in six healthy donors and 2 cancer patients, 2.2-5×10^5 PBMCs/well, FIG. 2) is greater than 500 spots. Moreover, the “donors with high responses in IFNγ ELISPOT” value in assay [3] (out of 6 healthy donors, PBMCs stimulated with peptide and low dose IL-2 for 1 week, FIG. 1) stood at 4 donors. For the same sequence, the “cancer patients showing responses in IFNγ ELISPOT” value in assay [3] (out of 16 cancer patients (8 melanoma, 6 multiple myeloma, 1 breast cancer, 1 renal cell carcinoma), strong responses counted for ArgLong2, FIG. 2) is recorded as 8 cancer patients. Further, in assay [3] (out of 19 healthy donors, strong responses counted for ArgLong2, FIG. 2), the “healthy donors showing responses in IFNγ ELISPOT” value was 14 healthy donors.
